Laboratory results from ChEMBL document CHEMBL4354803, “Synthesis and biological activity of structurally diverse phthalazine derivatives: A systematic review” (Bioorg Med Chem, 2019).

Test system: Mus musculus
Assay: Anticonvulsant activity in ip dosed Kunming mouse assessed as protection against 50 mA current-induced seizure measured after 0.5 hrs by maximal electroshock seizure test
Type: functional

FC(F)(F)c1cccc(COc2nn3cnnc3c3ccccc23)c1
ED50: 9.3 mg/kg
